From US20230414826A1, “FIBRIN HYDROGELS” (Mayo Foundation for Medical Education and Research, priority 2020, published 2023)

Biological target: T1, fibrinogen (Evicel) (Homo sapiens, UniProt P02671+P02675+P02679)
T1 construct: purchased Ethicon (Evicel Biologically Active Component 2)
T1 sequence (P02671 20-629 limits assumed): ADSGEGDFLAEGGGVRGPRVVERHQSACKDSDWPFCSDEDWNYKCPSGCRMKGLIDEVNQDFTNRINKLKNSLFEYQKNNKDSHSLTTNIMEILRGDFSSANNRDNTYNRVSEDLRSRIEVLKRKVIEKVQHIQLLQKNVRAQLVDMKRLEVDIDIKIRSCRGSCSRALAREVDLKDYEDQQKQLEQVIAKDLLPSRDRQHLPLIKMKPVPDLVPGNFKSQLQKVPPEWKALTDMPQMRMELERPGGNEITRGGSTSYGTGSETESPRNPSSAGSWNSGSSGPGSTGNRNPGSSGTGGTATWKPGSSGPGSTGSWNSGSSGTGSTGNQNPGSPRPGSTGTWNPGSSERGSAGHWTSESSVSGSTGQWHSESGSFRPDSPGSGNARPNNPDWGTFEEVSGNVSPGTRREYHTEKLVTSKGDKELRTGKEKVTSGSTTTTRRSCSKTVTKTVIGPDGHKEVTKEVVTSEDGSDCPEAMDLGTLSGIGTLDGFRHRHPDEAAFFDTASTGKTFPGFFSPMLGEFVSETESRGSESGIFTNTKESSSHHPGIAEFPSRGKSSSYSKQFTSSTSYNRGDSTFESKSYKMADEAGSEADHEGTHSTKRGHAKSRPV
T1 sequence (P02675 31-491): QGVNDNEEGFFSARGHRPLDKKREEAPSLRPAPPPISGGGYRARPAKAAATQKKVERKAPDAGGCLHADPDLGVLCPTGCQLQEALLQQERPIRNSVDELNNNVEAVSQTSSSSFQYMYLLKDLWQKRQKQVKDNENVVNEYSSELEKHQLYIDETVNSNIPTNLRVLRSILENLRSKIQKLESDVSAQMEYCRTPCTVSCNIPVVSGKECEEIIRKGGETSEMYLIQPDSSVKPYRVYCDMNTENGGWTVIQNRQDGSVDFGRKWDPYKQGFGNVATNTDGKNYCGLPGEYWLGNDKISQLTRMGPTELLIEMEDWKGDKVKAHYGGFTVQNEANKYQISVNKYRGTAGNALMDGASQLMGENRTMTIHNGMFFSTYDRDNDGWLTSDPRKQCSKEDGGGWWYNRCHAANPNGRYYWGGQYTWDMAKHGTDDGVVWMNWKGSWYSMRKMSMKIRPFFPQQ
T1 sequence (P02679 27-433 limits assumed): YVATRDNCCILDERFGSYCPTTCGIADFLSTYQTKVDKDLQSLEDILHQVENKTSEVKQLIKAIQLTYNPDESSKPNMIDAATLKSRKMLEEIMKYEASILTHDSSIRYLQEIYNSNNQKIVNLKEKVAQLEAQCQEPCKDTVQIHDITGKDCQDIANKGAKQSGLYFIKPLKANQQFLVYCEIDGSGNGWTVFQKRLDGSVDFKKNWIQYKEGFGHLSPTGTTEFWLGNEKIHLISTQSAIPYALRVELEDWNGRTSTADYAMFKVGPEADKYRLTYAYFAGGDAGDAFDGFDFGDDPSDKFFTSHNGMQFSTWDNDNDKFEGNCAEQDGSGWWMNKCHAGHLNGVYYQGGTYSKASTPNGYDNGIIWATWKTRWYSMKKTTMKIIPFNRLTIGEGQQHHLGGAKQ
Assay: Fibrinogen clotting assay with coagulation analyzer (Clauss method), tissue glue fibrinogen
Type: biochemical
Conditions: for gelation time (average clotting time): 4.58 mM additive in PBS, fixed 1:20 dilution of fibrinogen (Evicel); for clot time: dye 0.1% w/v; for Effect on Clotting Time: screen, multiple concentrations up to 4.58 mM

[1] = 0.01% (w/v) dye, 1:20 dilution of fibrinogen, n=10
[2] = 0.05% (w/v) dye, 1:20 dilution of fibrinogen, n=10
[3] = 0.10% (w/v) dye, 1:20 dilution of fibrinogen, n=10

Question: With `Cc1cc(-c2ccc(/N=N/c3ccc4c(S(=O)(=O)O)cc(S(=O)(=O)O)c(N)c4c3O)c(C)c2)ccc1/N=N/c1ccc2c(S(=O)(=O)O)cc(S(=O)(=O)O)c(N)c2c1O` [EB, Evans Blue] as the molecule, how does the “gelation time (average clotting time)” value (n=10) read?
Answer: > 70 s

Question: And the clotting time [1]?
Answer: 19.4 ± 0.7 s

Question: And the clotting time [2]?
Answer: 34.8 ± 4.7 s

Question: And the clotting time [3]?
Answer: 43.6 ± 2.5 s

Question: What about the clotting time (0.2-0.4% dye, out of range of detection of the coagulation analyzer) of the same molecule?
Answer: > 70 s

Question: What about the clot time (fibrinogen 10.0 mg/mL) of the same molecule?
Answer: 50.9 ± 4.9 s

Question: What about the clot time (fibrinogen 10.9 mg/mL) of the same molecule?
Answer: 39.5 ± 3.3 s

Question: And the clot time (fibrinogen 12.0 mg/mL)?
Answer: 31.7 ± 1.8 s

Question: What about the clot time (fibrinogen 13.3 mg/mL) of the same molecule?
Answer: 25.7 ± 1.0 s

Question: And the clot time (fibrinogen 17.1 mg/mL)?
Answer: 14.8 ± 0.4 s

Question: And the clot time (fibrinogen 24.0 mg/mL)?
Answer: 8.9 ± 2.3 s

Question: And the “Effect on Clotting Time” value?
Answer: Increase

Question: For `Cc1cc(-c2ccc(/N=N/c3c(S(=O)(=O)O)cc4cc(S(=O)(=O)O)cc(N)c4c3O)c(C)c2)ccc1/N=N/c1c(S(=O)(=O)O)cc2cc(S(=O)(=O)O)cc(N)c2c1O` [TB, Trypan Blue], which “gelation time (average clotting time)” value (n=10) is on record?
Answer: 46.3 ± 3.2 s

Question: And the clotting time [1]?
Answer: 17.6 ± 0.3 s

Question: And the clotting time [2]?
Answer: 18.1 ± 1.4 s

Question: And the clotting time [3]?
Answer: 24.4 ± 2.3 s

Question: What about the clotting time (0.2% (w/v) dye, 1:20 dilution of fibrinogen, n=10) of the same molecule?
Answer: 26.2 ± 4.2 s

Question: And the clotting time (0.3% (w/v) dye, 1:20 dilution of fibrinogen, n=10)?
Answer: 25.2 ± 2.9 s

Question: And the clotting time (0.4% (w/v) dye, 1:20 dilution of fibrinogen, n=10)?
Answer: 29.8 ± 1.2 s

Question: And the clot time (fibrinogen 10.0 mg/mL)?
Answer: 15.7 ± 3.1 s

Question: What about the clot time (fibrinogen 10.9 mg/mL) of the same molecule?
Answer: 16.3 ± 0.4 s

Question: What about the clot time (fibrinogen 12.0 mg/mL) of the same molecule?
Answer: 11.6 ± 3.7 s

Question: And the clot time (fibrinogen 13.3 mg/mL)?
Answer: 18.1 ± 0.4 s

Question: What about the clot time (fibrinogen 17.1 mg/mL) of the same molecule?
Answer: 7.4 ± 0.1 s

Question: What about the clot time (fibrinogen 24.0 mg/mL) of the same molecule?
Answer: 5.6 ± 0.1 s

Question: What about the “Effect on Clotting Time” value of the same molecule?
Answer: Increase
